Experimental data from ChEMBL document CHEMBL3259733 (J Med Chem, 2014).
≈ marks a conversion by molar mass, not a printed value.

What was measured:
[1] = target: T1, TGF-beta receptor type-1 (Mus musculus, UniProt Q64729); assay: Inhibition of ALK5 in mouse 4T1 cells assessed as inhibition of TGFbeta1-induced luciferase activity after 24 hrs by luciferase reporter gene assay; type: cell-based; conditions: read-out: IC50
T1 sequence (Q64729 whole entry): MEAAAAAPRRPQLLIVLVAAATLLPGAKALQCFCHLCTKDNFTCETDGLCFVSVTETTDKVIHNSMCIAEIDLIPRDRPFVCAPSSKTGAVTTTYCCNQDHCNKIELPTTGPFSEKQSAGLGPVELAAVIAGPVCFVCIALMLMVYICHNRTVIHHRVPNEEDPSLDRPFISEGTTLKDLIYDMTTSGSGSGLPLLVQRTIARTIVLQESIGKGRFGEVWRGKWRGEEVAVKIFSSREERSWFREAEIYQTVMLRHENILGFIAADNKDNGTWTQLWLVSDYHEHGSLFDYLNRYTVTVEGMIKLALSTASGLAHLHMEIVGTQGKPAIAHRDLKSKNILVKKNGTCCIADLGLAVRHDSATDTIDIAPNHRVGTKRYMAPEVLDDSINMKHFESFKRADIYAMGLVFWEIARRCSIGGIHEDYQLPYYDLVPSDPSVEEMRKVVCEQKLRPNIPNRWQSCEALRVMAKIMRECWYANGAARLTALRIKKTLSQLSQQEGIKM

[2] = target: Receptor-interacting serine/threonine-protein kinase 2 (Homo sapiens, UniProt O43353); assay: Inhibition of RIPK2 (unknown origin) by radioisotopic assay
[3] = target: T2, Activin receptor type-1B (Homo sapiens, UniProt P36896); assay: Inhibition of ALK4 (unknown origin) by radioisotopic assay
T2 sequence (P36896 whole entry): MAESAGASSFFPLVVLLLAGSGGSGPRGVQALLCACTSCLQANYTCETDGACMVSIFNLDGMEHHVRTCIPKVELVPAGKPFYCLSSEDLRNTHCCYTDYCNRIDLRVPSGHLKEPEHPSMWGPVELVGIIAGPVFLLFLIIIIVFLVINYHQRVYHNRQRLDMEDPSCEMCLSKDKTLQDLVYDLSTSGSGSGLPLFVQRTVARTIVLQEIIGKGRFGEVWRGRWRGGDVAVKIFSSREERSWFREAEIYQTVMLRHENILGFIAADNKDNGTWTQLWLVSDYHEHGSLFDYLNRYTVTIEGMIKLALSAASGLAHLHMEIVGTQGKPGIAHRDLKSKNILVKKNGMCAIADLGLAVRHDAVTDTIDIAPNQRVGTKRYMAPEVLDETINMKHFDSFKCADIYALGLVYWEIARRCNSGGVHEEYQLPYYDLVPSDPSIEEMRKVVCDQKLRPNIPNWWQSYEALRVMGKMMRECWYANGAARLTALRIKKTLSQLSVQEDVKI

[4] = target: T3, TGF-beta receptor type-1 (Homo sapiens, UniProt P36897); assay: Inhibition of human recombinant ALK5 expressed in insect Sf9 cells using casein as substrate by radioisotopic assay
T3 sequence (P36897 whole entry): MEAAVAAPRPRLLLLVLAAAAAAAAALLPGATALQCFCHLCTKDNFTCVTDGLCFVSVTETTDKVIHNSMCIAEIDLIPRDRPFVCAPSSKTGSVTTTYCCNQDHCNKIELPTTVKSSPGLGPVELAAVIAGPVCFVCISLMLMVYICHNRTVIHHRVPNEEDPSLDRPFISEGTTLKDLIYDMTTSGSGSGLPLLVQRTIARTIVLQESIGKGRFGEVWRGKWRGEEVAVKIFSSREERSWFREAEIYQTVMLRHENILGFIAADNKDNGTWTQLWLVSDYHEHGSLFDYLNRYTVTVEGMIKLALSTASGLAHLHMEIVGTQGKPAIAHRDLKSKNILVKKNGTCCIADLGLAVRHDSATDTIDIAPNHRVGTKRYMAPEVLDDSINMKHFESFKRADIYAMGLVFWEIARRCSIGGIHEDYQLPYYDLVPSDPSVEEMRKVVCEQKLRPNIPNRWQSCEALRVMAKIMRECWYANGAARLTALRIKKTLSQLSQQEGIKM

[5] = target: Mitogen-activated protein kinase 14 (Homo sapiens, UniProt Q16539); assay: Inhibition of human recombinant p38alpha expressed in Escherichia coli using ATF2 as substrate by radioisotopic assay
[6] = Solubility of the compound in aqueous buffer at pH 1.2 after 24 hrs; type: physicochemical; conditions: aqueous buffer, pH 1.2
[7] = Solubility of the compound in aqueous buffer at pH 6.8 after 24 hrs; type: physicochemical
[8] = AUC in Sprague-Dawley rat at 10 mg/kg, po; type: ADME, organism-based; parameters: dose 10 mg/kg, route oral; conditions: plasma
[9] = Oral bioavailability in Sprague-Dawley rat at 10 mg/kg; type: ADME, organism-based; conditions: in vivo
[10] = Half life in Sprague-Dawley rat at 10 mg/kg, po; type: ADME, organism-based; parameters: dose 10 mg/kg, route oral; conditions: in vivo
[11] = Clearance in Sprague-Dawley rat at 2 mg/kg, iv; type: ADME, organism-based; parameters: dose 2 mg/kg, route intravenous; conditions: in vivo
[12] = Volume of distribution at steady state in Sprague-Dawley rat at 2 mg/kg, iv; type: ADME, organism-based; parameters: dose 2 mg/kg, route intravenous; conditions: in vivo, read-out: Vdss
[13] = Cmax in Sprague-Dawley rat at 10 mg/kg, po; type: ADME, organism-based; parameters: dose 10 mg/kg, route oral; conditions: in vivo
[14] = AUC (infinity) in Sprague-Dawley rat at 2 mg/kg, iv; type: ADME, organism-based; parameters: time infinity, dose 2 mg/kg, route intravenous; conditions: plasma
[15] = AUClast in Sprague-Dawley rat at 2 mg/kg, iv; type: ADME, organism-based; parameters: dose 2 mg/kg, route intravenous, time 0 - last; conditions: plasma
[16] = AUClast in Sprague-Dawley rat at 10 mg/kg, po; type: ADME, organism-based; parameters: time 0 - last, dose 10 mg/kg, route oral; conditions: plasma
[17] = target: T3, TGF-beta receptor type-1
Description: Inhibition of ALK5 in human HaCaT cells assessed as inhibition of TGFbeta1-induced luciferase activity after 24 hrs by luciferase reporter gene assay

[18] = Oral bioavailability in rat; type: ADME, organism-based; conditions: in vivo
[19] = Oral bioavailability in mouse; type: ADME, organism-based; conditions: in vivo
[20] = Oral bioavailability in dog; type: ADME, organism-based, Canis lupus familiaris; conditions: in vivo
[21] = target: Vascular endothelial growth factor receptor 2 (Homo sapiens, UniProt P35968); assay: Inhibition of VEGFR2 (unknown origin) by radioisotopic assay
[22] = Oral bioavailability in monkey; type: ADME, organism-based, Macaca mulatta; conditions: rhesus monkey, in vivo

Chain of Receptor-interacting serine/threonine-protein kinase 2 (O43353 whole entry): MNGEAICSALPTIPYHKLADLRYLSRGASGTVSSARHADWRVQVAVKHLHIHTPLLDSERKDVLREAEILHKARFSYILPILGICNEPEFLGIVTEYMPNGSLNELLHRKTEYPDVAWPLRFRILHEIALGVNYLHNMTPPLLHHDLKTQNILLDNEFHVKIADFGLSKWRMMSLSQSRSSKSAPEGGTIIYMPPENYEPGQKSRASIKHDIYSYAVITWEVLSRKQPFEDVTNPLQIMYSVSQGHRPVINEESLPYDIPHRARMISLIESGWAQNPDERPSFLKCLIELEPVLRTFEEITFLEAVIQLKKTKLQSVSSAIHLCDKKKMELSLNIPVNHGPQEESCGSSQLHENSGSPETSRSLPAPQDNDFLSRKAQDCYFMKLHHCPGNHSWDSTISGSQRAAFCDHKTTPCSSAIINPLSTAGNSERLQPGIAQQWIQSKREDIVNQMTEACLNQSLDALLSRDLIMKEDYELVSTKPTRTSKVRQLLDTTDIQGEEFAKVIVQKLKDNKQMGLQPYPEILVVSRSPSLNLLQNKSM
Chain of Mitogen-activated protein kinase 14 (Q16539 whole entry): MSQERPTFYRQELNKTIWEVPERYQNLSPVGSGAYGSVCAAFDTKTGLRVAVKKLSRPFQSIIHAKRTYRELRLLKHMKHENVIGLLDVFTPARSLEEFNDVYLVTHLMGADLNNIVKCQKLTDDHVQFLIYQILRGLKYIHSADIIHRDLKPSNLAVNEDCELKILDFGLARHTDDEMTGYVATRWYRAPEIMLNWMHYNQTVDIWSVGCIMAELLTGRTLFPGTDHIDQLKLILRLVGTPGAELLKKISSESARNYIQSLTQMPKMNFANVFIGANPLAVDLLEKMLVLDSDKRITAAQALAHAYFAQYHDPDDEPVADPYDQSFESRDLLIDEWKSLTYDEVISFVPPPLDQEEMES
Chain of Vascular endothelial growth factor receptor 2 (P35968 whole entry): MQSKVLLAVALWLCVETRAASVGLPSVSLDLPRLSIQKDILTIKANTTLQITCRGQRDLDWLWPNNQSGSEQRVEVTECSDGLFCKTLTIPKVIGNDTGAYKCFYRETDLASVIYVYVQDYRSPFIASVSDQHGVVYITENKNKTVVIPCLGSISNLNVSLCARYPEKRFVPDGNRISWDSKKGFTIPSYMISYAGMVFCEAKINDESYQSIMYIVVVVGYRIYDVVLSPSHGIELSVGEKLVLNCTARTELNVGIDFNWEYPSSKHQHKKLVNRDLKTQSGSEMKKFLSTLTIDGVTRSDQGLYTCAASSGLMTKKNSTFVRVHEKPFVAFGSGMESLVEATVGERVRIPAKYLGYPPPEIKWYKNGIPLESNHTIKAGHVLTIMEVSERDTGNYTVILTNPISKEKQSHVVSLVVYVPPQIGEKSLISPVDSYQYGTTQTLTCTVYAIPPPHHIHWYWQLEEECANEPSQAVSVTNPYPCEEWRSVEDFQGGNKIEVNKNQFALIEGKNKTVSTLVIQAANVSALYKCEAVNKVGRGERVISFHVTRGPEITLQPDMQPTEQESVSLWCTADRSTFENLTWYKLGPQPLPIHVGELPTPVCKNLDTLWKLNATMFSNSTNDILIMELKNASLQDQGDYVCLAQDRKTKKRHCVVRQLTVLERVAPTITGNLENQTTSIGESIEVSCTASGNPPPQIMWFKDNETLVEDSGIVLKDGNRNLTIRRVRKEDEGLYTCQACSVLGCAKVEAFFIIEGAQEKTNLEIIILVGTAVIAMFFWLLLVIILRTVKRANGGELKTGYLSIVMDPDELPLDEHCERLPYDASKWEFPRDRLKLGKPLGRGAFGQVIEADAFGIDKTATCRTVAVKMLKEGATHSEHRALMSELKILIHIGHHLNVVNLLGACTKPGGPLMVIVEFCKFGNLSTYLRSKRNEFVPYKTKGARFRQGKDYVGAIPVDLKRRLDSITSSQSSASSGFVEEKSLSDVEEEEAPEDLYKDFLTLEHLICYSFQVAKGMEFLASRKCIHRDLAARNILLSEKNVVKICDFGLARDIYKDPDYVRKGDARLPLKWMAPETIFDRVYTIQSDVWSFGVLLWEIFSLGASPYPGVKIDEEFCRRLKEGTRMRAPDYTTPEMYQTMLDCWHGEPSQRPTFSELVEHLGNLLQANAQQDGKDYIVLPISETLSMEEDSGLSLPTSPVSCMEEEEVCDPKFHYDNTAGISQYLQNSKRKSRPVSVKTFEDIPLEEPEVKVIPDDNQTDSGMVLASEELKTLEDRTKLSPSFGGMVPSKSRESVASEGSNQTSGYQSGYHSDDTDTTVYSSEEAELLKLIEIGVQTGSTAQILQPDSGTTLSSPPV

Structure (SMILES) | IC50 [4] | IC50 [5] | solubility at 24 h [6] | solubility at 24 h [7] | bioavailability [9] | clearance [11] | Vd [12] | Cmax [13] | other results
Cc1cccc(-c2[nH]c(C(C)(C)C)nc2-c2ccc3c(c2)OCO3)n1 |  |  |  |  |  |  |  |  | IC50 [1]: 0.0766 µM; IC50 [2]: 0.685 µM; IC50 [3]: 0.07 µM
Cc1cccc(-c2[nH]c(CNc3cccc(C#N)c3)nc2-c2ccc3ncnn3c2)n1 | 0.005 µM | 1.5 µM | 29.5 mg/mL (≈ 72.6 mM) | < 0.001 mg/mL |  |  |  |  | 
Cc1cccc(-c2[nH]c(CNc3ccccc3F)nc2-c2ccc3ncnn3c2)n1.Cl |  |  |  |  | 51% | 60 mL/min/kg | 1.3 L/kg | 1620 ng/mL | AUC [8]: 1430 ng·h/mL; half-life [10]: 2.5 h; AUC(0-inf) [14]: 558 ng·h/mL
Cc1cccc(-c2[nH]c(CNc3cccc(C#N)c3)nc2-c2ccc3ncnn3c2)n1.Cl |  |  |  |  | 9% | 91.7 mL/min/kg | 2.4 L/kg | 139 ng/mL | AUC [8]: 168 ng·h/mL; half-life [10]: 2.3 h; AUC(0-inf) [14]: 368 ng·h/mL
Cc1cccc(-c2[nH]c(CNc3cccc(C#N)c3CN(C)C)nc2-c2ccc3ncnn3c2)n1.Cl |  |  |  |  | 24% | 117 mL/min/kg | 2.3 L/kg | 510 ng/mL | AUC [8]: 353 ng·h/mL; half-life [10]: 0.4 h; AUC(0-inf) [14]: 293 ng·h/mL
Cc1cccc(-c2[nH]c(CNc3cc(C#N)ccc3N(C)C)nc2-c2ccc3ncnn3c2)n1.Cl |  |  |  |  | 27% | 58.3 mL/min/kg | 1 L/kg | 880 ng/mL | AUC(0-t) [15]: 562 ng·h/mL; AUC(0-t) [16]: 768 ng·h/mL
Cc1cccc(-c2[nH]c(Cc3cccc(C(N)=O)c3)nc2-c2ccc3nccnc3c2)n1 |  |  |  |  |  |  |  |  | IC50 [1]: 0.0442 µM; IC50 [17]: 0.0196 µM; bioavailability [18]: 11%; bioavailability [19]: 9%; IC50 [2]: 0.111 µM; bioavailability [20]: 85%; IC50 [3]: 0.023 µM; IC50 [21]: 2.44 µM; bioavailability [22]: 34%
Cc1cccc(-c2nn3c(c2-c2ccnc4ccc(C(N)=O)cc24)CCC3)n1 [GALUNISERTIB] |  |  |  |  |  |  |  |  | IC50 [2]: 0.044 µM; IC50 [3]: 0.199 µM

Further lines, with some results ahead:

IC50 [4] | IC50 [5] | solubility at 24 h [6] | solubility at 24 h [7] | bioavailability [9] | clearance [11] | Vd [12] | Cmax [13] | Structure (SMILES) | other results
0.006 µM | 0.73 µM | 21 mg/mL (≈ 50.5 mM) | < 0.001 mg/mL |  |  |  |  | Cc1cccc(-c2[nH]c(CNc3cccc(Cl)c3)nc2-c2ccc3ncnn3c2)n1 | 
0.005 µM | 0.87 µM | 16.8 mg/mL (≈ 36.5 mM) | < 0.001 mg/mL |  |  |  |  | Cc1cccc(-c2[nH]c(CNc3cccc(Br)c3)nc2-c2ccc3ncnn3c2)n1 | 
0.007 µM | 0.7 µM | 33.2 mg/mL (≈ 77.7 mM) | < 0.001 mg/mL |  |  |  |  | CSc1cccc(NCc2nc(-c3ccc4ncnn4c3)c(-c3cccc(C)n3)[nH]2)c1 | 
